Measured values published in ChEMBL document CHEMBL4118116, “Benzoxazine derivatives of phytophenols show anti-plasmodial activity via sodium homeostasis disruption” (Bioorg Med Chem Lett, 2018).
The source made the active and inactive calls. The calls are words filed in the database; no cut-off is given here.

Tests used:
HepG2 = test: Cytotoxicity against human HepG2 cells assessed as reduction in cell viability at 50 uM after 24 hrs by MTT assay; type: cell-based; settings: hepg2, 24 h
Plasmodium falciparum [1] = test: Growth inhibition of schizont stage Plasmodium falciparum 3D7 infected in human erythrocytes at 50 uM after 46 hrs by ethidium bromide staining based flow cytometric analysis relative to control; type: functional; settings: 3D7, 46 h, read-out: GI
Plasmodium falciparum [2] = test: Induction of mitochondrial membrane potential loss in trophozoite stage of Plasmodium falciparum 3D7 infected in human erythrocytes assessed as decrease in JC1 red to JC1 green ratio at 50 uM by JC1 staining based microscopic analysis; type: functional, organism-based
[3] = test system: Plasmodium falciparum 3D7; test: Inhibition of P-type cation ATPase ATP4 in trophozoite stage of Plasmodium falciparum 3D7 infected in human erythrocytes assessed as increase in Na+/- levels at 50 uM by sodium green dye based microscopic analysis; type: cell-based
Plasmodium falciparum [4] = test: Growth inhibition of schizont stage Plasmodium falciparum 3D7 infected in human erythrocytes at 10 uM after 46 hrs by ethidium bromide staining based flow cytometric analysis relative to control; type: functional; settings: 3D7, 46 h, read-out: GI
Plasmodium falciparum [5] = test: Antiplasmodial activity against late trophozoite stage of Plasmodium falciparum 3D7 infected in human erythrocytes measured after 46 hrs by ethidium bromide staining based flow cytometric analysis; type: functional, organism-based; settings: for EC50: 3D7, 46 h
[6] = test system: Plasmodium falciparum 3D7; test: (§1) Inhibition of P-type cation ATPase ATP4 in trophozoite stage of Plasmodium falciparum 3D7 infected in human erythrocytes assessed as swelling of intraerythrocytic parasites by measuring diameter of parasite at 50 uM after 4 hrs by sodium green dye based microscopic analysis (reference value: 3.5 micrometer); type: cell-based
[7] = test system: Plasmodium falciparum 3D7; test: as §1, with “of parasitized RBC” for “of parasite”, “value: 5.03” for “value: 3.5”; type: cell-based
Plasmodium falciparum [8] = test: Antiplasmodial activity against late trophozoite stage of Plasmodium falciparum 3D7 infected in human erythrocytes measured after 46 hrs in presence of graphene oxide 1 by ethidium bromide staining based flow cytometric analysis; type: functional, organism-based; settings: 3D7, 46 h
Plasmodium falciparum [9] = test: Antiplasmodial activity against late trophozoite stage of Plasmodium falciparum 3D7 infected in human erythrocytes measured after 46 hrs in presence of graphene oxide 2 by ethidium bromide staining based flow cytometric analysis; type: functional, organism-based; settings: 3D7, 46 h
Plasmodium falciparum [10] = test: Ratio of EC50 for antiplasmodial activity against late trophozoite stage of Plasmodium falciparum 3D7 infected in human erythrocytes to EC50 for antiplasmodial activity against late trophozoite stage of Plasmodium falciparum 3D7 infected in human erythrocytes in presence of graphene oxide 2; type: functional

SMILES: C/C=C/c1ccc(O)c(OC)c1
- Activity (HepG2): Non-Toxic

SMILES: C=CCc1cc2c(c(OC)c1)OCN(Cc1ccco1)C2
- inhibition of growth at 50 µM (Plasmodium falciparum [1]): 58.5%
- Activity (Plasmodium falciparum [2]): Active
- inhibition [3]: Active
- inhibition of growth at 10 µM (Plasmodium falciparum [4]): 4.7%
- Activity (Plasmodium falciparum [5]): Dose-dependent effect
- EC50 (Plasmodium falciparum [5]): 22 µM
- Activity (HepG2): Non-Toxic

SMILES: C=CCc1ccc(O)c(OC)c1 [EUGENOL]
- Activity (HepG2): Non-Toxic

SMILES: C/C=C/c1cc2c(c(OC)c1)OCN(Cc1ccco1)C2
- Activity [6]: 4.4 µm
- Activity [7]: 6.3 µm
- EC50 (Plasmodium falciparum [8]): 7.19 µM
- EC50 (Plasmodium falciparum [9]): 0.49 µM
- inhibition of growth at 50 µM (Plasmodium falciparum [1]): 73%
- Ratio EC50 (Plasmodium falciparum [10]): 36
- Activity (Plasmodium falciparum [2]): Active
- inhibition [3]: Active
- inhibition of growth at 10 µM (Plasmodium falciparum [4]): 14.9%
- Activity (Plasmodium falciparum [5]): Dose-dependent effect
- EC50 (Plasmodium falciparum [5]): 17.5 µM
- Activity (HepG2): Non-Toxic
